Laboratory results taken from the NIST ThermoML archive (doi:10.1021/je300827f).
Numbers after ± are expanded uncertainties.

Assay: xn = mol fraction of the nth substance listed
Conditions: 101 kPa, Liquid, x2 = 0; for viscosity: Capillary tube (Ostwald / Ubbelohde) method; for mass density: Vibrating tube method

SMILES: CC(C)O [propan-2-ol] + OCCOCCO
- viscosity (298.15 K): 2.06 ± 0.08 mPa·s
- mass density (298.15 K): 781.1 ± 0.2 kg/m3
- viscosity (303.15 K): 1.79 ± 0.07 mPa·s
- mass density (303.15 K): 776.7 ± 0.2 kg/m3
- viscosity (308.15 K): 1.56 ± 0.06 mPa·s
- mass density (308.15 K): 771.8 ± 0.2 kg/m3
- viscosity (313.15 K): 1.38 ± 0.06 mPa·s
- mass density (313.15 K): 767.4 ± 0.2 kg/m3
